How the values were obtained:
[1] = molecular target: Sigma non-opioid intracellular receptor 1 (Homo sapiens, UniProt Q99720); assay: Displacement [3H]-Pentazocine from sigma 1 receptor (unknown origin) expressed in HEK cell membranes
[2] = molecular target: Sigma intracellular receptor 2 (Homo sapiens, UniProt Q5BJF2); assay: Displacement [3H]-DTG from sigma 2 receptor (unknown origin) expressed in HEK cell membranes
Homo sapiens = organism: Homo sapiens; assay: Selectivity index, ratio of Ki for displacement [3H]-Pentazocine from sigma 1 receptor (unknown origin) expressed in HEK cell membranes to Ki for [3H]-DTG from sigma 2 receptor (unknown origin) expressed in HEK cell membranes

Sequence of Sigma intracellular receptor 2 (Q5BJF2 whole entry): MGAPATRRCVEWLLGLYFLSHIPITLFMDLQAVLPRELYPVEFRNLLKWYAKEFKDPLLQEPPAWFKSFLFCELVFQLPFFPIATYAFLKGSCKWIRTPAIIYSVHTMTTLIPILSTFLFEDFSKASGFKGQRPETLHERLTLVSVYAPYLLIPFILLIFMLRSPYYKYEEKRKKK
Sequence of Sigma non-opioid intracellular receptor 1 (Q99720 whole entry): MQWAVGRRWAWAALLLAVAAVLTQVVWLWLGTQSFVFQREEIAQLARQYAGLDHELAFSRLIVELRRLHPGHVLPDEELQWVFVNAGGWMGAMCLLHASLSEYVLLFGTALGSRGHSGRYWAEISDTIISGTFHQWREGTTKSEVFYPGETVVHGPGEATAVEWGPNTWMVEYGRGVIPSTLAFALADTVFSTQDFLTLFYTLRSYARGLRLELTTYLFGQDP

| Compound | Ki ([1]; read-out: Ki) [nM] | Ki [2] [nM] | Ki ([1]; read-out: pKi (converted)) [nM] | Ratio Ki (Homo sapiens) |
| --- | --- | --- | --- | --- |
| OC1(c2ccc(Cl)cc2)CC2CCC(C1)N2CCCSc1ccc(F)cc1 (stereo unspecified) | 81 |  |  |  |
| O=C(CCCN1CCCN(c2ncccn2)CC1)c1ccc(F)cc1 | 63 | 44 |  | 1.4 |
| O=C(CCCN1CCN(c2ccccn2)CC1)c1ccc(F)cc1 [AZAPERONE] | 403 | 52 |  | 7.8 |
| OC1(c2ccc(Cl)cc2)CC2CCC(C1)N2CCCSc1cccc(F)c1 (stereo unspecified) | 71 | 8.1 |  | 8.8 |
| [O-][S+](CCCN1CCN(c2ccc(Cl)cc2)CC1)c1ccc(F)cc1 (stereo unspecified) | 1150 | 600 |  | 1.9 |
| Fc1ccc(CCCCN2CCN(c3ccc(Cl)cn3)CC2)cc1 | 95 | 43 |  | 2.2 |
| Fc1ccc(CCCCN2CCN(c3ccc(Cl)cc3)CC2)cc1 | 36 |  |  |  |
| OC1(c2ccc(Cl)cc2)CC2CCC(C1)N2CCCSc1ccccc1F (stereo unspecified) | 57 | 2.2 |  | 25.9 |
| OC1(c2ccc(Cl)cc2)CC2CCC(C1)N2CCCOc1ccc(F)cc1 (stereo unspecified) | 166 | 18 |  |  |
| OC1(c2ccc(Cl)cc2)CC2CCC(C1)N2CCCCc1ccc(F)cc1 (stereo unspecified) | 22 | 27 |  | 0.8 |
| Clc1ccc(N2CCN(CCCOc3ccccc3)CC2)cc1 | 51.7 | 33 |  | 1.6 |

More lines, in order of falling Ki [2], values ahead:

| Ki ([1]; read-out: Ki) [nM] | Ki [2] [nM] | Ki ([1]; read-out: pKi (converted)) [nM] | Compound | Ratio Ki (Homo sapiens) |
| --- | --- | --- | --- | --- |
|  | 32 | 457 | O=C(CCCN1CCCN(c2ccccn2)CC1)c1ccc(F)cc1 | 14 |
| 148 | 26 |  | O/N=C(/CCCN1CCCN(c2ncccn2)CC1)c1ccc(F)cc1 | 5.7 |
| 77.1 | 25.1 |  | c1ccc(OCCCN2CCN(c3ccccc3)CC2)cc1 | 3.1 |
| 70 | 13.1 |  | O/N=C(/CCCN1CCCN(c2ccccn2)CC1)c1ccc(F)cc1 | 5.3 |
| 3.6 | 8.5 |  | Fc1ccc(CCCCN2CCCN(c3ccc(Cl)cc3)CC2)cc1 | 0.4 |
| 25 | 8.4 |  | O=C(CCCN1CCN(c2ccc(Cl)cn2)CC1)c1ccc(F)cc1 | 3 |
| 30 | 8 |  | O=C(CCCN1CCCN(c2ccc(Cl)cn2)CC1)c1ccc(F)cc1 | 3.8 |
| 2.9 | 5.9 |  | Fc1ccc(OCCCN2CCCN(c3ccc(Cl)cc3)CC2)cc1 | 0.5 |
| 41.5 | 5.12 |  | Fc1ccc(OCCCN2CCN(c3ccccc3)CC2)cc1 | 8.1 |
| 113 | 2.7 |  | O/N=C(/CCCN1CCCN(c2ccc(Cl)cn2)CC1)c1ccc(F)cc1 | 41.8 |
| 7.2 | 2.2 |  | Fc1ccc(SCCCN2CCCN(c3ccc(Cl)cn3)CC2)cc1 | 3.3 |
